Source: patent US7323314B2, “Members of the capsaicin/vanilloid receptor family of proteins and uses thereof” (Bayer HealthCare AG, priority 1998, dated 2008)
Blank lines part the entries; values can stand above or below the compound they belong to.

What was measured:
human VR1 = biological target: T1, human VR1 (Homo sapiens, UniProt Q8NER1, A11T/S41P/T469I); experiment: Binding of [3H]-resiniferatoxin to membranes isolated from HEK293 cell homogenates (VR1); conditions: 0.1-10 nM concentration
T1 construct: expressed in transfected cells; host or cells: HEK293 cells (membranes)
T1 sequence (Q8NER1 whole entry A11T/S41P/T469I): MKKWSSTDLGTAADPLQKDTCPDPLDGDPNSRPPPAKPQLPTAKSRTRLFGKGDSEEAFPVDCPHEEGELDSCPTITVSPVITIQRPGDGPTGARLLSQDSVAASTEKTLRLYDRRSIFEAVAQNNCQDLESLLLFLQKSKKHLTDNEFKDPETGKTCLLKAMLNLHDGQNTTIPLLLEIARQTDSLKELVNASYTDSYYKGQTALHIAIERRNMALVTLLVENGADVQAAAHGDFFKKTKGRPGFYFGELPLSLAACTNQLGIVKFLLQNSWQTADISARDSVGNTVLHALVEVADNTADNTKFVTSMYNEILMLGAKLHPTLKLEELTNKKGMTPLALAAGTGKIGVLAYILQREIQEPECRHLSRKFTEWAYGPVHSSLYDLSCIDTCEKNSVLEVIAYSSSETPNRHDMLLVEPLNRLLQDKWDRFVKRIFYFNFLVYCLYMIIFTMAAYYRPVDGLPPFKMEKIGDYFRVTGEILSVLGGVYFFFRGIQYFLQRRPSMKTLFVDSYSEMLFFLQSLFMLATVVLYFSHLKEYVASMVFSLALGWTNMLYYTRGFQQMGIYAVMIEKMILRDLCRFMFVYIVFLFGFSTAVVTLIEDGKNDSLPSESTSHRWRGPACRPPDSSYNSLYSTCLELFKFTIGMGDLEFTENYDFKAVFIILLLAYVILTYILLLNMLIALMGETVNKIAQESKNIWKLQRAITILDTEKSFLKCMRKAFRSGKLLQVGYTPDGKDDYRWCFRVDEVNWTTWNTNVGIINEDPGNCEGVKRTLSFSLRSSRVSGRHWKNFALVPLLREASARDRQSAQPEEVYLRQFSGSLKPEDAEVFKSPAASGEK

Human VR2 [1] = biological target: T2, Human VR2 (Homo sapiens, UniProt Q9Y5S1); experiment: Binding of [3H]-resiniferatoxin to membranes isolated from HEK293 cell homogenates (VR2); conditions: 0.1-10 nM concentration
T2 construct: expressed in transfected cells; host or cells: Xenopus oocytes injected with cRNA
T2 sequence (Q9Y5S1 1-764): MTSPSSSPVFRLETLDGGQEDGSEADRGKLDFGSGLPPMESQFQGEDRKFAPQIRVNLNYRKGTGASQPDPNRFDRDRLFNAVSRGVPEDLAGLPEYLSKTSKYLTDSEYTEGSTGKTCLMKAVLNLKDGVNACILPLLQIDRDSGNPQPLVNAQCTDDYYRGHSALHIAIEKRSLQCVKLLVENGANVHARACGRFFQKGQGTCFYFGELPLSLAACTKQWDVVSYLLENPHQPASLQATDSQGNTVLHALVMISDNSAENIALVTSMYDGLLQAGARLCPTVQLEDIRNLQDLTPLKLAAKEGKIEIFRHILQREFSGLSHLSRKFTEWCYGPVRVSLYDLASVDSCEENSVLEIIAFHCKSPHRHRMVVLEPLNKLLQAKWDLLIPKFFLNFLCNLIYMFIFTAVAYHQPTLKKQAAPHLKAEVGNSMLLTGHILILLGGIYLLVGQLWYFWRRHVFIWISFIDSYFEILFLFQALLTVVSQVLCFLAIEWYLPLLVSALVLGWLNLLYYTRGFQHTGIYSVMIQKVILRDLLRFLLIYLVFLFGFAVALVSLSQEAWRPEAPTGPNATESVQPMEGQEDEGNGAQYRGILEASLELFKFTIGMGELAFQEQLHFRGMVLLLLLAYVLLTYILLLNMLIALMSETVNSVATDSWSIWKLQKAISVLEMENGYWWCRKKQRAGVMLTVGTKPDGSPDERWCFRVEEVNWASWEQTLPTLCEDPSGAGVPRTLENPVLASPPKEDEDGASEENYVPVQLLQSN

Human VR2 [2] = biological target: T2, Human VR2; experiment: Whole-cell patch-clamp of VR2 transiently expressed in HEK293 cells; type: cell-based
Description: Human VR2 was functionally characterized in both HEK293 cells and Xenopus oocytes using electrophysiological methods. VR2 (in the pcDNA3.1 vector purchased by Invitrogen) was transiently expressed in HEK293 cells (ATCC) and recordings were performed 48 hours after transfection of cells using the whole-cell patch-clamp method (described in Bertil Hille, Ionin Channels of excitable membranes, 1992; Hammill et al. (1981) Pluger Arch. 391:85-100).

Human VR2 [3] = biological target: T2, Human VR2; experiment: Two-electrode voltage-clamp of VR2 in Xenopus oocytes; type: cell-based; conditions: heat stimulation (48-50° C.), 1-10 μM concentration
Description: For the oocyte studies, human VR2 was subcloned into an oocyte expression vector containing 5′- and 3′-UTR of Xenopus β-globin (Chiara et al. (1999) Biochemistry 38(20)6689-6698). In vitro trasncription was carried out as described in Chiara et al. (supra) and cRNA (10-100 ng) was then injected into the oocytes. VR2 function was characterized in the oocytes 48 hours after cRNA injection using a standard two-electrode voltage-clamp.

SMILES: C=C(C)[C@]12C[C@@H](C)[C@@]34O[C@](Cc5ccccc5)(O[C@@H]1[C@@H]3C=C(COC(=O)Cc1ccc(O)c(OC)c1)C[C@]1(O)C(=O)C(C)=C[C@@H]41)O2 [resiniferatoxin]
binding to human VR1 (human VR1): high affinities
specific binding to VR2 (Human VR2 [1]): no specific binding
induction of currents from VR2 (Human VR2 [2]; 0.1-3 μM concentration): do not induce any currents

block of heat-evoked currents of VR2 (Human VR2 [2]; heat stimulation (>50° C.), 10 μM concentration): reversibly blocked
SMILES: Oc1cc2c(cc1O)CN(C(=S)NCCc1ccc(Cl)cc1)CCC2 [capsazepin, capsazepine]
block of the heat response of VR2 (Human VR2 [3]): blocks the heat response of VR2 reversibly

induction of currents from VR2 (Human VR2 [2]; 1-10 μM concentration): do not induce any currents
SMILES: COc1cc(CNC(=O)CCCC/C=C/C(C)C)ccc1O [Capsaicin, capsaicin]
